ChEMBL document CHEMBL2029263, “New myrsinol diterpenes from Euphorbia prolifera and their inhibitory activities on LPS-induced NO production” (Bioorg Med Chem Lett, 2012)

Key:
BV-2 [1] = experiment: Cytotoxicity against mouse BV2 cells at effective concentration after 20 hrs by MTT assay; type: cell-based; details: bv-2, 20 h
BV-2 [2] = experiment: Inhibition of LPS-induced NO production in mouse BV2 cells after 20 hrs by Griess assay; type: functional, cell-based; details: BV-2, 20 h

| IC50 (BV-2 [2]) [µM] | SMILES | Activity (BV-2 [1]) |
| --- | --- | --- |
| 74.3 | C=C(C)[C@H]1C=C[C@@H](OC(=O)c2ccccc2)[C@@]23CO[C@@](C)([C@H](OC(=O)c4cccnc4)[C@@]4(OC(C)=O)C[C@H](C)[C@H](OC(=O)CC)[C@@H]4[C@H]2OC(C)=O)[C@H]13 | Non-toxic |
| 43.8 | CC(=O)O[C@@H]1[C@H]2[C@@H](OC(=O)c3cccnc3)[C@](C)(OC(=O)C(C)C)C[C@]2(OC(C)=O)[C@H](OC(=O)c2ccccc2)[C@]2(C)OC[C@]13[C@H](OC(C)=O)C=C[C@H](C(C)(C)OC(C)=O)[C@@H]23 [EUPHORBIALOID J] | Non-toxic |
| 36.5 | CCC(=O)O[C@@H]1[C@@H]2[C@@H](OC(C)=O)[C@@]34CO[C@@](C)([C@H](OC(=O)c5cccnc5)[C@@]2(OC(C)=O)C[C@@H]1C)[C@@H]3[C@@H](C(C)(C)OC(C)=O)C=CC4=O [EUPHORBIALOID F] | Non-toxic |
| 15.6 | CC(=O)O[C@@H]1[C@@H]2[C@@H](OC(=O)c3ccccc3)[C@@]3(COC(=O)c4cccnc4)[C@@H]([C@@H]4[C@H](C[C@H]3OC(C)=O)C4(C)C)[C@](C)(O)C(=O)[C@@]2(O)C[C@@H]1C [EUPHORBIALOID B] | Non-toxic |
| 41.3 | CCC(=O)O[C@@H]1[C@@H]2[C@@H](OC(C)=O)[C@@]34CO[C@@](C)([C@@H](OC(=O)c5ccccc5)[C@@]2(OC(C)=O)C[C@@]1(C)OC(=O)c1cccnc1)[C@@H]3[C@@H](C(C)(C)OC(C)=O)C=C[C@H]4OC(C)=O [EUPHORBIALOID I] | Non-toxic |
| 64.3 | CCC(=O)O[C@@H]1[C@@H]2[C@@H](OC(C)=O)[C@@]34CO[C@@](C)([C@H](OC(=O)c5cccnc5)[C@@]2(OC(C)=O)C[C@@H]1C)[C@@H]3[C@@H]1[C@@H](C[C@]1(C)OC(C)=O)[C@@H](OC(=O)c1ccccc1)C4=O [EUPHORBIALOID H] | Non-toxic |
| 80.2 | C=C(C)[C@H]1C=C[C@@H](OC(=O)c2cccnc2)[C@@]23CO[C@@](C)([C@H](OC(=O)c4cccnc4)[C@@]4(OC(C)=O)C[C@H](C)[C@H](OC(=O)CC)[C@@H]4[C@H]2OC(C)=O)[C@H]13 | Non-toxic |
| 48.7 | CCC(=O)O[C@@H]1[C@@H]2[C@@H](OC(C)=O)[C@@]34CO[C@@](C)([C@H](OC(C)=O)[C@@]2(O)C[C@@H]1C)[C@@H]3[C@@H]1[C@@H](C[C@]1(C)OC(C)=O)[C@@H](OC(=O)c1cccnc1)C4=O [EUPHORBIALOID G] | Non-toxic |
| 13.2 | CSC(=N)N | – |
| 19.4 | CCC(=O)O[C@@H]1[C@@H]2[C@@H](OC(=O)c3ccccc3)[C@@]3(COC(=O)c4cccnc4)[C@@H]([C@@H]4[C@H](C[C@H]3OC(C)=O)C4(C)C)[C@](C)(O)C(=O)[C@@]2(O)C[C@@H]1C [EUPHORBIALOID A] | Non-toxic |
| 35.2 | CCCC(=O)O[C@@H]1[C@@H]2[C@@H](OC(=O)c3ccccc3)[C@@]3(COC(=O)c4cccnc4)[C@@H]([C@@H]4[C@H](C[C@H]3OC(C)=O)C4(C)C)[C@](C)(OC(C)=O)C(=O)[C@@]2(O)C[C@@H]1C [EUPHORBIALOID D] | Non-toxic |
| 29.7 | CCC(=O)O[C@@H]1[C@@H]2[C@@H](OC(=O)c3ccccc3)[C@@]3(COC(=O)c4cccnc4)[C@@H]([C@@H]4[C@H](C[C@H]3OC(C)=O)C4(C)C)[C@](C)(OC(C)=O)C(=O)[C@@]2(O)C[C@@H]1C [EUPHORBIALOID C] | Non-toxic |
| 33.7 | CC(=O)O[C@@H]1[C@H]2[C@@H](OC(=O)c3cccnc3)[C@@H](C)C[C@]2(OC(C)=O)[C@@H](OC(C)=O)[C@]2(C)OC[C@]13C(=O)C=C[C@H](C(C)(C)OC(C)=O)[C@@H]23 [EUPHORBIALOID E] | Non-toxic |
